According to US7816134B2, “Method of extensive culture of antigen-specific cytotoxic T cells” (Takara Bio Inc., priority 2000, dated 2010):
Where two headings read alike, the source gives them in different places.

What was measured:
[1] = test system: anti-influenza virus memory CTLs (FluMPA2.1); type: cell-based, human
[2] = test system: anti-influenza virus memory CTLs (FluMPA2.1); assay: Expansion ratio of anti-influenza virus memory CTLs (FluMPA2.1), REM method (EBV-B cells added); type: cell-based, human; settings: Example 3-2, sample 10 μg/ml during CTL induction +, addition of EBV-B cells +
[3] = test system: HLA-A2.1-having EBV transformed B-cells (221A2.1); assay: Specific cytotoxic activity of MAGE3-specific CTLs after expansion; type: cell-based, human; settings: for Cytotoxic Activity (%): sample induction +, expansion +
From the text: (§1) CTLs prepared in item (1) of Example 2-1 were washed with 5HRPMI, and then made into a suspension having a concentration of 5×10^4 cells/ml. On the other hand, allogenic PBMCs not having HLA-A24 and HLA-A2.1 which were collected in the same manner as in item (1) of Example 1-1 were subjected to X-ray irradiation (3300R), and the cells were washed with the medium and then made into a suspension having a concentration of 5×10^6 cells/ml. These CTLs (2.5×10^4 cells) and allogenic PBMCs (1.25×10^7 cells) were suspended in 10 ml of 5HRPMI, and anti-CD3 antibody (manufactured by Janssen-Kyowa) was further added thereto so as to give a final concentration of 50 ng/ml. The mixture was placed into a flask of 12.5 cm^2 (manufactured by Falcon), and the cells were cultured in a wet-type CO2 incubator at 37° C. for 14 days. […] The expansion ratio (× times ratio) was calculated by dividing the cell count after the expansion by the cell count before the expansion.

[4] = test system: anti-tumor-associated antigen(MAGE3)-specific CTLs; assay: Expansion ratio of MAGE3-specific CTLs; type: cell-based, human; settings: sample 10 μg/ml: induction +, 14 days
From the text: as §1

[5] = test system: HLA-A2.1-having EBV transformed B-cells (221A2.1); assay: Specific cytotoxic activity of MART1-specific CTLs after expansion, EBV transformed B-cell target; type: cell-based, human; settings: for Cytotoxic Activity (%): target cells 221A2.1, sample induction +, expansion +, peptide addition +
Experimental: (§2) In the evaluation, as target cells, there were used HLA-A2.1-having EBV transformed B-cells which were cultured in the absence of the epitope peptide (name of cells: 221A2.1); a cancer cell line-having HIA-A2.1 which was cultured for two nights in the presence of 100 U/ml IFN-γ (name of cells: 624mel; MART1 expressed cells having HLA-A2.1); or a cancer cell line not having HLA-A2.1 (name of cells: 888mel; MART1 expressed cells not having HLA-A2.1).
(§3) Stimulation by a peptide was not added at all during this culture. On the first day of the initiation of the culture, IL-2 was added so as to have a final concentration of 120 U/ml. […] However, in the group with no addition of the sample, the sample was not added even during medium exchange.

[6] = test system: anti-tumor-associated antigen(MART1)-specific CTLs; assay: Expansion ratio of MART1-specific CTLs; type: cell-based, human; settings: sample 10 μg/ml: induction +, 14 days
From the text: as §1

[7] = test system: HLA-A2.1-having EBV transformed B-cells (221A2.1); settings: for Cytotoxic Activity (%) E/T Ratio 10: Example 3-2, FluMPA2.1, sample 10 μg/ml during CTL induction +, during expansion +, addition of EBV-B cells −; for Cytotoxic Activity (%): sample induction +
[8] = test system: HLA-A2.1-having EBV transformed B-cells (221A2.1); settings: for Cytotoxic Activity (%) E/T Ratio 10: Example 3-2, REM method, FluMPA2.1, sample 10 μg/ml during CTL induction +, during expansion +, addition of EBV-B cells +
[9] = test system: 888mel; MART1 expressed cells not having HLA-A2.1
Experimental: as §2, §3

[10] = test system: HLA-A2.1-having EBV transformed B-cells (221A2.1); assay: Cytotoxic activity of anti-tumor-associated antigen(MAGE3)-specific CTLs on the thirty-fifth day after the initiation of induction; settings: 10 μg/ml

hyaluronic acid was tested, and the “Expansion Ratio” value ([1]; Example 3-2, sample 10 μg/ml during CTL induction +, during expansion +, addition of EBV-B cells −) was “× 335”, the “Expansion Ratio” value ([1]; Example 4-1, sample 10 μg/ml: induction +, expansion +, 14 days) was “× 493” and the “Expansion Ratio” value ([1]; Example 4-2, sample 10 μg/ml: induction +, expansion +, 14 days) was “× 423”. The “Expansion Ratio” value ([1]; Example 4-2, sample 10 μg/ml: induction +, expansion −, 14 days) was “× 393”, the “Expansion Ratio” value [2] was “× 587” and the “cytotoxic activity after expansion for 14 days (in words)” value ([3]; MAGE3-specific CTLs, sample 10 μg/ml during CTL induction and during expansion) was “specific, high cytotoxic activity”. The “Cytotoxic Activity (%)” value ([3]; peptide addition +, E/T ratio 2) was 50.3%, the “Cytotoxic Activity (%)” value ([3]; peptide addition +, E/T ratio 6) was 67.7% and the “Cytotoxic Activity (%)” value ([3]; peptide addition −, E/T ratio 2) was 3.6%. The “Expansion Ratio” value [4] was “× 217”, the “cytotoxic activity after expansion for 14 days (in words)” value ([5]; MART1-specific CTLs, sample 10 μg/ml during CTL induction and during expansion) was “specific, high cytotoxic activity” and the “Cytotoxic Activity (%)” value ([5]; E/T ratio 2) was 9.1%. For the same substance, the “Cytotoxic Activity (%)” value ([5]; E/T ratio 6) was 52.8%, the “Cytotoxic Activity (%)” value ([5]; E/T ratio 17) was 74.4% and the “Expansion Ratio” value [6] was “× 217”. For the same substance, the “Cytotoxic Activity (%) E/T Ratio 10” value ([7]; peptide addition +) was 60.0%, the “Cytotoxic Activity (%) E/T Ratio 10” value ([7]; peptide addition −) was 2.3% and the “Cytotoxic Activity (%)” value ([7]; Example 4-1, expansion +, peptide addition +, E/T ratio 1) was 31.1%. For the same substance, the “Cytotoxic Activity (%)” value ([7]; Example 4-1, expansion +, peptide addition +, E/T ratio 3) was 49.8%, the “Cytotoxic Activity (%)” value ([7]; Example 4-1, expansion +, peptide addition +, E/T ratio 10) was 90.8% and the “Cytotoxic Activity (%)” value ([7]; Example 4-1, expansion +, peptide addition +, E/T ratio 30) was 105.6%. The “Cytotoxic Activity (%)” value ([7]; Example 4-1, expansion +, peptide addition −, E/T ratio 1) was 7.3%, the “Cytotoxic Activity (%)” value ([7]; Example 4-1, expansion +, peptide addition −, E/T ratio 3) was 8.6% and the “Cytotoxic Activity (%)” value ([7]; Example 4-1, expansion +, peptide addition −, E/T ratio 10) was 13.1%. For the same substance, the “Cytotoxic Activity (%)” value ([7]; Example 4-1, expansion +, peptide addition −, E/T ratio 30) was 17.0%, the “Cytotoxic Activity (%)” value ([7]; Example 4-2, expansion +, peptide addition +, E/T ratio 1) was 7.2% and the “Cytotoxic Activity (%)” value ([7]; Example 4-2, expansion +, peptide addition +, E/T ratio 3) was 23.3%. The “Cytotoxic Activity (%)” value ([7]; Example 4-2, expansion +, peptide addition +, E/T ratio 10) was 59.6%, the “Cytotoxic Activity (%)” value ([7]; Example 4-2, expansion +, peptide addition +, E/T ratio 30) was 85.1% and the “Cytotoxic Activity (%)” value ([7]; Example 4-2, expansion +, peptide addition −, E/T ratio 1) was 0%. For the same substance, the “Cytotoxic Activity (%)” value ([7]; Example 4-2, expansion +, peptide addition −, E/T ratio 3) was 0%, the “Cytotoxic Activity (%)” value ([7]; Example 4-2, expansion +, peptide addition −, E/T ratio 10) was 1.9% and the “Cytotoxic Activity (%)” value ([7]; Example 4-2, expansion +, peptide addition −, E/T ratio 30) was 14.3%. The “Cytotoxic Activity (%)” value ([7]; Example 4-2, expansion −, peptide addition +, E/T ratio 1) was 9.9%, the “Cytotoxic Activity (%)” value ([7]; Example 4-2, expansion −, peptide addition +, E/T ratio 3) was 22.1% and the “Cytotoxic Activity (%)” value ([7]; Example 4-2, expansion −, peptide addition +, E/T ratio 10) was 47.7%. For the same substance, the “Cytotoxic Activity (%)” value ([7]; Example 4-2, expansion −, peptide addition +, E/T ratio 30) was 78.0%, the “Cytotoxic Activity (%)” value ([7]; Example 4-2, expansion −, peptide addition −, E/T ratio 1) was 3.0% and the “Cytotoxic Activity (%)” value ([7]; Example 4-2, expansion −, peptide addition −, E/T ratio 3) was 1.4%. For the same substance, the “Cytotoxic Activity (%)” value ([7]; Example 4-2, expansion −, peptide addition −, E/T ratio 10) was 4.7%, the “Cytotoxic Activity (%)” value ([7]; Example 4-2, expansion −, peptide addition −, E/T ratio 30) was 9.3% and the “cytotoxic activity after expansion for 14 days (in words)” value ([7]; sample 10 μg/ml only during CTL induction) was “specific, high cytotoxic activity”. The “Cytotoxic Activity (%) E/T Ratio 10” value ([8]; peptide addition +) was 95.5%, the “Cytotoxic Activity (%) E/T Ratio 10” value ([8]; peptide addition −) was 8.1% and the “cytotoxic activity after expansion according to the REM method (in words)” value ([8]; sample added at the stage of CTL induction prior to the expansion, EBV-B cells added) was “maintained at a high level”. For the same substance, the “Cytotoxic Activity (%)” value [9] was 0% and the “difference in the cytotoxic activity by the presence or absence of the addition during the induction” value [10] was “almost no difference”.
